The text below walks through data of patent publication EP0089940A1, “Compositions for therapeutic or diagnostic use containing oligosaccharides” (priority 1982, dated 1983).

One assay concerns the target T1, K88 fimbriae (Escherichia coli, UniProt P14190).
T1 construct: In the experiments I^125-labelled K88 fimbriae at a concentration of 0.5 mg/ml in PBS were used; made in house; host or cells: E. coli O149 K88+ (native fimbriae isolated from the bacteria)
Description: Inhibition of adherence of I125-labelled K88-fimbriae to brush border membranes from pig small intestine. The conditions noted are these: for inhibition at 5000 µg/mL: read-out: inhibited the adherence of K88 fimbriae to the brush border membranes; for inhibited the adherence of K88 fimbriae to the brush border membranes: 0.5 ml oligosaccharide solution 5 mg/ml in PBS, 0.5 ml I125-labelled K88 fimbriae 0.5 mg/ml, 1 ml brush border membranes 2 · 10^6 cells/ml, 37°C. In kind it is binding, E.coli. The procedure: In the experiments I^125-labelled K88 fimbriae at a concentration of 0.5 mg/ml in PBS were used. Moreover, brush border membranes prepared according to Sellwood et al at a concentration of 2 · 10^6 cells/ml in PBS were used.
Oligosaccharides tested for their inhibiting ability were dissolved in PBS to a concentration of 5 mg/ml.
In the inhibition tests 0.5 ml I125-labelled K88 fimbriae was incubated with 0.5 ml oligosaccharide solution at 37°C for 30 minutes, 1 ml of the suspension of brush border membranes being then added. After incubation for another 60 minutes at 37°C the mixture was centrifuged for 15 minutes at 600 x g, the radioactivity being then measured in the supernatant. As a control 1 ml of PBS was used.

The next assay relates to E.coli. Nature of the assay: Disinfection: removal of bacteria from an infected surface. Conditions: 0.1 percent by weight aqueous solution applied by cotton pad onto a surface infected by E.coli. On the procedure: By disinfection is here primarily intended removal of bacteria from a surface, for example a wound.
A 0.1 percent by weight aqueous solution of the compound a-D-Galp-(1-3)-D-Gal is prepared and applied by means of a cotton pad onto a surface infected by E.coli.

T1 sequence (P14190 22-283 limits assumed): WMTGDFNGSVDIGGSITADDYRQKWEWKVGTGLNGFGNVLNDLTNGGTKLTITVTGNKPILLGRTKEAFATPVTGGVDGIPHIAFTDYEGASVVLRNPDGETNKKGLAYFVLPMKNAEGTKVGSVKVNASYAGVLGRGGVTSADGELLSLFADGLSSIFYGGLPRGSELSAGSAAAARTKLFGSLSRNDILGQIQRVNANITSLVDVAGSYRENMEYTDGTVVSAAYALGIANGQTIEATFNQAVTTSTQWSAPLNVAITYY

For the molecule `OC[C@H]1O[C@H](O[C@H]2[C@@H](O)[C@@H](CO)OC(O)[C@@H]2O)[C@H](O)[C@@H](O)[C@H]1O` (stereo partly drawn) [α-D-Galp-(1-3)-D-Gal], the inhibition at 5000 µg/mL on K88 fimbriae turned out to be 70%. The “removal of the bacterium from the surface” value in the assay on E.coli is reported as “effective removal”. Consider `OC[C@H]1O[C@H](O[C@H]2[C@@H](O)[C@@H](CO)O[C@H](O[C@H]3[C@@H](O)[C@@H](CO)OC(O)[C@@H]3O)[C@@H]2O)[C@H](O)[C@@H](O)[C@H]1O` (stereo partly drawn) [α-D-Galp-(1-3)-α-D-Galp-(1-3)-D-Gal], for which, on K88 fimbriae, the inhibition at 5000 µg/mL turned out to be 79%. `OC[C@H]1O[C@H](O[C@@H]2[C@H](O)[C@@H](O)C(O)O[C@@H]2CO)[C@H](O)[C@@H](O)[C@H]1O` (stereo partly drawn) [α-D-Galp-(1-4)-D-Gal, reference compound]: the “inhibited the adherence of K88 fimbriae to the brush border membranes” value at K88 fimbriae is “inactive”. On the same count and under the same terms, the result for `OC[C@H]1O[C@H](OC[C@H]2OC(O)[C@H](O)[C@@H](O)[C@H]2O)[C@H](O)[C@@H](O)[C@H]1O` (stereo partly drawn) [α-D-Galp-(1-6)-D-Gal, reference compound] reads “inactive”.

For `OC[C@H]1O[C@H](O[C@H]2[C@@H](O)[C@@H](CO)O[C@H](O[C@H]3[C@@H](O)[C@@H](CO)O[C@H](O[C@H]4[C@@H](O)[C@@H](CO)OC(O)[C@@H]4O)[C@@H]3O)[C@@H]2O)[C@H](O)[C@@H](O)[C@H]1O` (stereo partly drawn) [α-D-Galp-(1-3)-α-D-Galp-(1-3)-α-D-Galp-(1-3)-D--Gal], the inhibition at 5000 µg/mL on K88 fimbriae came out at 73%.
